Source: patent US4877734A, “Microbiologically produced α-acetylamino cinnamic acid acylase, method of its production and its use” (Degussa Aktiengesellschaft and Gesellschaft fur …, priority 1986, dated 1989)
Converted amounts (≈) assume the structure as drawn.

Tests used:
ACA acylase [1] = experiment: Influences of inhibitors and activators on ACA acylase activity (standard conditions, coupled test with D-2-hydroxy-4-methylpentanoic acid dehydrogenase); format: biochemical, Brevibacterium spec.
Experimental: 0.1 M phosphate buffer for pH 7.5
(§1) limiting amounts of ACA acylase.
(Deviation: The tests with bivalent metal ions were performed in 0.1M tris/HCl buffer for pH 8.0.)

ACA acylase [2] = experiment: Substrate specificity, test 3: peptides and N-acyl phenylalanines, amino acids detected with amino acid analyzer; format: biochemical, Brevibacterium spec.; conditions: for Activity / Relative Activity: 50 mM substrate, pH 7.5, 30° C.; for Activity: 0.1 U/ml ACA acylase; for Relative Activity: relative to α-acetylamino cinnamic acid = 100%
Experimental: Other substrates used were N-acetyl-L-phenylalanine, N-methoxycarbonyl-D,L-phenylalanine and various peptides. The test batch contained in these instances:
0.1 M potassium phosphate buffer (pH 7.5)
(§2) The batches (1 ml altogether) were agitated (30° C.) and samples were taken at different times. The amino acids produced by the acylase action were quantitatively detected with the aid of an amino acid analyzer. The activity of the enzymes is also indicated in this instance in international units-an activity of 1 U corresponds to the formation of 1 μmole amino acid per minute. The activities measured with the 3 test batches are listed in column 2 of Table 6 in mU/ml. For the determination of the relative activity (column 3 of Table 6), the activity of the α-acetylamino cinnamic acid as substrate was set equal to 100%.

ACA acylase [3] = experiment: Substrate specificity, test 2: α-acetylamino acrylic acid, photometric test coupled with L-alanine dehydrogenase; format: biochemical, Brevibacterium spec.
Experimental: 2. Test with α-acetylamino acrylic acid:
50 mM α-acetyl amino acrylic acid
1 U/ml L--alanine dehydrogenase
The activity was measured in an analogous manner (by a photometric test at 340 nm) (1 μmole NADH decrease would correspond to 1 μmole formation of alanine).
as §2

ACA acylase [4] = experiment: Dependency of ACA acylase activity on substrate concentration, coupled with L-phenylalanine dehydrogenase (pH 8.5); format: biochemical, Brevibacterium spec.
Experimental: 0.7 mM ammonium chloride/ammonia buffer (pH 8.5)
0.5 U L--phenylalanine dehydrogenase
as §1
The α-acetylamino cinnamic acid concentration was varied within a range of 1-36 mM. […] The KM value for α-acetylamino cinnamic acid is 3.9 mM.

ACA acylase [5] = experiment: Dependency of ACA acylase activity on substrate concentration, coupled with D-2-hydroxy-4-methylpentanoic acid dehydrogenase (pH 7.5); format: biochemical, Brevibacterium spec.
Experimental: 0.1 M phosphate buffer (pH 7.5)
0.8 U D--2-hydroxy-4-methylpentanoic acid dehydrogenase
as §1
The α-acetylamino cinnamic acid concentration was varied within a range of 0.1-18 mM. […] The KM value for α-acetylamino cinnamic acid is at 0.45 mM.

ACA acylase [6] = experiment: Substrate specificity, test 1: α-acetylamino cinnamic acid, photometric test coupled with L-phenylalanine dehydrogenase; format: biochemical, Brevibacterium spec.
Experimental: In a series of parallel batches, the substrate α-acetylamino cinnamic acid was replaced by other compounds and tested to see to what extent the enzyme accepts other substrates. The following test batches were used depending on the substrate used:
1. Test with α-acetylamino cinnamic acid as substrate:
50 mM α-acetylamino cinnamic acid
The activity was measured (at 340 nm) by a photometric test as described in Example 1.
as §2

[7] = at 25° C.; cited from earlier work
[8] = bivalent metal ion, concentration 1 nM (so in the source), 0.1M tris/HCl buffer pH 8.0
[9] = bivalent metal ion, concentration 10 nM (so in the source), 0.1M tris/HCl buffer pH 8.0
[10] = reagent concentration 1 nM (so in the source), 0.1 M phosphate buffer pH 7.5, 30° C.
[11] = reagent concentration 10 nM (so in the source), 0.1 M phosphate buffer pH 7.5, 30° C.

## [Cl][Mn][Cl] [MnCl2]
ACA acylase [1]; [8]
  Residual Activity: 63%

## [Cl][Hg][Cl] [HgCl2]
ACA acylase [1]; [8]
  Residual Activity: 51%
ACA acylase [1]; [9]
  Residual Activity: 0%

## COC(=O)NC(Cc1ccccc1)C(=O)O (racemic) [N--methoxycarbonyl D,L--phenylalanine, N-methoxycarbonyl-D,L-phenylalanine]
ACA acylase [2]
  Activity: 0 mU.ml^-1
  Relative Activity: 0%

## L--ala-L--trp
ACA acylase [2]
  Activity: 66 mU.ml^-1
  Relative Activity: 53%

## L--ala-L--phe
ACA acylase [2]
  Activity: 105 mU.ml^-1
  Relative Activity: 84%

## O[C@H](CS)[C@H](O)CS (racemic) [dithiothreitol]
ACA acylase [1]; addition of 1 mmole
  Influence on the enzyme (in words): activates
ACA acylase [1]; [10]
  Residual Activity: 146%
ACA acylase [1]; [11]
  Residual Activity: 123%

## L--leu-L--trp
ACA acylase [2]
  Activity: 67 mU.ml^-1
  Relative Activity: 54%

## gly-D-phe
ACA acylase [2]
  Activity: 0 mU.ml^-1
  Relative Activity: 0%

## L--phe-L--phe
ACA acylase [2]
  Activity: 41 mU.ml^-1
  Relative Activity: 33%

## L--leu-L--phe
ACA acylase [2]
  Activity: 102 mU.ml^-1
  Relative Activity: 82%

## p-mercuric benzoate
ACA acylase [1]; [10]
  Residual Activity: 41%
ACA acylase [1]; [11]
  Residual Activity: 3%
ACA acylase [1]; summary of properties
  Influence on the enzyme (in words): inhibiting action

## gly-L--phe
ACA acylase [2]
  Activity: 40 mU.ml^-1
  Relative Activity: 32%

## [Cl][Cd][Cl] [CdCl2]
ACA acylase [1]; [8]
  Residual Activity: 72%
ACA acylase [1]; [9]
  Residual Activity: 29%
ACA acylase [1]; summary of properties
  Influence on the enzyme (in words): inhibiting action

## L--asp-L--phe
ACA acylase [2]
  Activity: 38 mU.ml^-1
  Relative Activity: 30%

## CC(=O)N[C@@H](Cc1ccccc1)C(=O)O [N--acetyl-L--phenylalanine, N-acetyl-L-phenylalanine]
ACA acylase [2]
  Activity: 0 mU.ml^-1
  Relative Activity: 0%
ACA acylase [2]; summary of properties
  Substrate specificity: hydrolysis by the enzyme (in words): not

## [Cl][Ni][Cl] [NiCl2]
ACA acylase [1]; [8]
  Residual Activity: 83%
ACA acylase [1]; [9]
  Residual Activity: 53%

## L--his-L--phe
ACA acylase [2]
  Activity: 44 mU.ml^-1
  Relative Activity: 35%

## c1cnc2c(c1)ccc1cccnc12 [o-phenanthroline]
ACA acylase [1]; [10]
  Residual Activity: 72%
ACA acylase [1]; [11]
  Residual Activity: 45%
ACA acylase [1]; summary of properties
  Influence on the enzyme (in words): inhibiting action

## C=C(NC(C)=O)C(=O)O [α-acetylamino acrylic acid]
ACA acylase [3]; 50 mM substrate, 0.1 U/ml ACA acylase, pH 8.0
  Activity: 0 mU.ml^-1
ACA acylase [3]; relative to α-acetylamino cinnamic acid = 100%, 50 mM substrate, pH 8.0
  Relative Activity: 0%
ACA acylase [3]; summary of properties
  Substrate specificity: hydrolysis by the enzyme (in words): not

## gly-gly-L--phe
ACA acylase [2]
  Activity: 0 mU.ml^-1
  Relative Activity: 0%

## N[C@@H](CCC(=O)N[C@@H](CS)C(=O)NCC(=O)O)C(=O)O [red. glutathione]
ACA acylase [1]; [10]
  Residual Activity: 102%
ACA acylase [1]; [11]
  Residual Activity: 81%

## [Cl][Hg].[Cl][Hg] [Hg2 Cl2]
ACA acylase [1]; summary of properties
  Influence on the enzyme (in words): inhibiting action

## O=C(O)CN(CCN(CC(=O)O)CC(=O)O)CC(=O)O [EDTA]
ACA acylase [1]; [10]
  Residual Activity: 111%
ACA acylase [1]; [11]
  Residual Activity: 102%

## CC(=O)NC(=Cc1ccccc1)C(=O)O [α-acetylamino cinnamic acid]
ACA acylase [4]; pH 8.5, coupled with L-phenylalanine dehydrogenase
  Km: 3900 µM
ACA acylase [4]; pH 8.5, concentration varied 1-36 mM
  Substrate concentration at which the optimum reaction speed is achieved: 16 mM
ACA acylase [5]; pH 7.5
  Km: 450 µM
ACA acylase [5]; pH 7.5, coupled with D-2-hydroxy-4-methylpentanoic acid dehydrogenase
  Km: 450 µM
ACA acylase [5]; pH 7.5, concentration varied 0.1-18 mM
  Substrate concentration at which the optimum reaction speed is achieved: 5 mM
ACA acylase [6]; 50 mM substrate, 0.1 U/ml ACA acylase, pH 9.2
  Activity: 125 mU.ml^-1
ACA acylase [6]; summary of properties
  Substrate specificity: hydrolysis by the enzyme (in words): hydrolyzes
ACA acylase [6]; α-acetylamino cinnamic acid set equal to 100%, 50 mM substrate, pH 9.2
  Relative Activity: 100%

## L--ala-L--tyr
ACA acylase [2]
  Activity: 78 mU.ml^-1
  Relative Activity: 62%

## [Cl-].[Cl-].[Mg+2] [MgCl2]
ACA acylase [1]; [8]
  Residual Activity: 100%
ACA acylase [1]; [9]
  Residual Activity: 100%

## [Ca+2].[Cl-].[Cl-] [CaCl2]
ACA acylase [1]; [8]
  Residual Activity: 99%
ACA acylase [1]; [9]
  Residual Activity: 99%

## L--leu-L--tyr
ACA acylase [2]
  Activity: 109 mU.ml^-1
  Relative Activity: 87%

## L--ala-L--his
ACA acylase [2]
  Activity: 43 mU.ml^-1
  Relative Activity: 34%

## N[C@@H](Cc1ccccc1)C(=O)O [Phe, L-phenylalanine]
[7]
  solubility in H2 O: 180000 µM (≈ 29.7 mg/mL)

## c1ccc(-c2ccccn2)nc1 [2,2-dipyridyl]
ACA acylase [1]; [10]
  Residual Activity: 97%
ACA acylase [1]; [11]
  Residual Activity: 69%

## OCCS [2-mercaptoethanol]
ACA acylase [1]; [10]
  Residual Activity: 100%
ACA acylase [1]; [11]
  Residual Activity: 100%

## [Cl-].[Cl-].[Zn+2] [ZnCl2]
ACA acylase [1]; [8]
  Residual Activity: 86%
ACA acylase [1]; [9]
  Residual Activity: 34%

## L--ser-L--phe
ACA acylase [2]
  Activity: 36 mU.ml^-1
  Relative Activity: 29%
